For data set [1], the target named is Sodium channel protein type 5 subunit alpha (Homo sapiens, UniProt Q14524). The experiment in a line: Inhibition of human Nav1.5 expressed in HEK cells assessed as reduction in sodium current at -60 mV holding potential by PatchXpress platform based whole cell patch clamp electrophysiological assay. Further details: species or system HEK293. (In general: In patch-clamp work, channel activity is measured electrically.)

Data set [2] addresses T1, Cytochrome P450 2D6 (Homo sapiens, UniProt P10635). In words: (§1) Inhibition of CYP2D6 (unknown origin) using bufuralol substrate at 10 uM. It is filed as ADME. The conditions noted are these: 10 µM.
Data set [3] deals with T2, Cytochrome P450 2C9 (Homo sapiens, UniProt P11712). The experiment in a line: (§2) Inhibition of CYP2C9 (unknown origin) using diclofenac substrate at 10 uM. It is filed as ADME. As to conditions: 10 µM.
Data set [4] concerns the target T3, Cytochrome P450 2C19 (Homo sapiens, UniProt P33261). In words: (§3) Inhibition of CYP2C19 (unknown origin) using omeprazole substrate at 10 uM. In kind it is ADME. As to conditions: 10 µM.
For data set [5], the target named is T4, Cytochrome P450 3A4 (Homo sapiens, UniProt P08684). In words: (§4) Inhibition of CYP3A4 (unknown origin) using midazolam substrate at 10 uM. In kind it is ADME. The conditions noted are these: 10 µM.
A further data set addresses CYP2D6 (Homo sapiens, UniProt P10635). The data set is described as §1. It is filed as ADME. As to conditions: probe bufuralol.
Data set [6] has as its target Sodium channel protein type 9 subunit alpha (Homo sapiens, UniProt Q15858). The experiment in a line: Inhibition of human Nav1.7 expressed in HEK cells assessed as reduction in sodium current at -60 mV holding potential by PatchXpress platform based whole cell patch clamp electrophysiological assay. The arrangement: species or system HEK293.
The species named for another data set is Homo sapiens. The experiment in a line: Selectivity index, ratio of IC50 for human Nav1.5 to IC50 for human Nav1.7.
A further data set has as its target CYP2C9 (Homo sapiens, UniProt P11712). The data set is described as §2. It is filed as ADME. As to conditions: probe diclofenac.
Another data set addresses CYP2C19 (Homo sapiens, UniProt P33261). The description is as §3. It is filed as ADME. The conditions noted are these: probe omeprazole.
The target in the next data set is CYP3A4 (Homo sapiens, UniProt P08684). Described as §4. The conditions noted are these: probe midazolam. In kind it is ADME.
In data set [7] the target is T3, Cytochrome P450 2C19. The experiment in a line: Inhibition of CYP2C19 (unknown origin) using omeprazole substrate. In kind it is ADME.
For data set [8], the target named is T1, Cytochrome P450 2D6. The experiment in a line: Inhibition of CYP2D6 (unknown origin) using bufuralol substrate. In kind it is ADME.
The target in data set [9] is T4, Cytochrome P450 3A4. The experiment in a line: Inhibition of CYP3A4 (unknown origin) using midazolam substrate. In kind it is ADME.
Data set [10] addresses T2, Cytochrome P450 2C9. In words: Inhibition of CYP2C9 (unknown origin) using diclofenac substrate. In kind it is ADME.

Sequence of Sodium channel protein type 5 subunit alpha (Q14524 whole entry): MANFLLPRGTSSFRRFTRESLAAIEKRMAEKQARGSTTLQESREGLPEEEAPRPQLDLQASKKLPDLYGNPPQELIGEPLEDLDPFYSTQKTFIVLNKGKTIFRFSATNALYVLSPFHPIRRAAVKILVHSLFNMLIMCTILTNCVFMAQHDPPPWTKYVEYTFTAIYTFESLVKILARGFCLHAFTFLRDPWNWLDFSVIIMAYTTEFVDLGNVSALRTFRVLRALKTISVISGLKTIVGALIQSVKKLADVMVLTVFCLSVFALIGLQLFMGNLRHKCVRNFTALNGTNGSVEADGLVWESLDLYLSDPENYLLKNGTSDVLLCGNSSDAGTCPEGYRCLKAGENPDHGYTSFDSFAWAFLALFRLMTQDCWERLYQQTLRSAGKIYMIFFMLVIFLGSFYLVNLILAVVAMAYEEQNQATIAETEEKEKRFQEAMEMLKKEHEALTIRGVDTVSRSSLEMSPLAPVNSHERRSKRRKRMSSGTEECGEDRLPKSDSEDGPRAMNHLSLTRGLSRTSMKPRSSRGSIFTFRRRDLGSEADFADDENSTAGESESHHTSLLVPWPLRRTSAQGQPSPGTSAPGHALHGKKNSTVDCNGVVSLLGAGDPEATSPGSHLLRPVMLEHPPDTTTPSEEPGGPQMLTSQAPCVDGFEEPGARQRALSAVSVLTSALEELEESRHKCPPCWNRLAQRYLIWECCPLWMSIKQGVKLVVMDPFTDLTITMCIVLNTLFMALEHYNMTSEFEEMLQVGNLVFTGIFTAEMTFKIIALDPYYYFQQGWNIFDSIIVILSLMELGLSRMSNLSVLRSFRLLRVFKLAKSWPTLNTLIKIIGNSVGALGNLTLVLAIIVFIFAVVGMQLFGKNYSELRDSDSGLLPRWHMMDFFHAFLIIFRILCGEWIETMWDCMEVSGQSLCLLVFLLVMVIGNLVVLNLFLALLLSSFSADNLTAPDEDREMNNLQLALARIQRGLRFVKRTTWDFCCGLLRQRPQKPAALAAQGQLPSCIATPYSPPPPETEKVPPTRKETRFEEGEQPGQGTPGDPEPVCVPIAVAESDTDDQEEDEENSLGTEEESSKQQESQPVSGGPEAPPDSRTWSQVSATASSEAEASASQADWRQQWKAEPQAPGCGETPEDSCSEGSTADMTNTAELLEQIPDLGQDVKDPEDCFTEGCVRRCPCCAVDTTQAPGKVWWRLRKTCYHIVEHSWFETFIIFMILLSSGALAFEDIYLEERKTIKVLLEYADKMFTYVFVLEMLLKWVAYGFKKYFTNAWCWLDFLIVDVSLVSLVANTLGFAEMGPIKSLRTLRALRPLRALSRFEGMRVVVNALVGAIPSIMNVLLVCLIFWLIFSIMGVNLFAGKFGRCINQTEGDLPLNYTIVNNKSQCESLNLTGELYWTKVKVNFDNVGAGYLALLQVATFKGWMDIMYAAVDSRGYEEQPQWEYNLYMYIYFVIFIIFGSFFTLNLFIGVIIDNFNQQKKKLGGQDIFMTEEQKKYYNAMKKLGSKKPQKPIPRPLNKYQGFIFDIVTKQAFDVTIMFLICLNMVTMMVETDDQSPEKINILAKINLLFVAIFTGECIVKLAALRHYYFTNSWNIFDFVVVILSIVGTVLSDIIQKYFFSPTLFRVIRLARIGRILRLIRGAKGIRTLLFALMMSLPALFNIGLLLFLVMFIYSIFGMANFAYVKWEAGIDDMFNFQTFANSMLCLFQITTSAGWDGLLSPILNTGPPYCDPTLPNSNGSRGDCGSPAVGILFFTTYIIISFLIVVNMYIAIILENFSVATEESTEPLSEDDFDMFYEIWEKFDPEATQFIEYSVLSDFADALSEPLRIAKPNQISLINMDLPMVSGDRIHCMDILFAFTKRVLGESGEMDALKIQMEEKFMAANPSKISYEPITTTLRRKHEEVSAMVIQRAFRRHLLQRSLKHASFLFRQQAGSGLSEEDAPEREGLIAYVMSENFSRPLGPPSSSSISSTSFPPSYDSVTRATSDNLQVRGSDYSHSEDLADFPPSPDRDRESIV
T3 sequence (P33261 whole entry): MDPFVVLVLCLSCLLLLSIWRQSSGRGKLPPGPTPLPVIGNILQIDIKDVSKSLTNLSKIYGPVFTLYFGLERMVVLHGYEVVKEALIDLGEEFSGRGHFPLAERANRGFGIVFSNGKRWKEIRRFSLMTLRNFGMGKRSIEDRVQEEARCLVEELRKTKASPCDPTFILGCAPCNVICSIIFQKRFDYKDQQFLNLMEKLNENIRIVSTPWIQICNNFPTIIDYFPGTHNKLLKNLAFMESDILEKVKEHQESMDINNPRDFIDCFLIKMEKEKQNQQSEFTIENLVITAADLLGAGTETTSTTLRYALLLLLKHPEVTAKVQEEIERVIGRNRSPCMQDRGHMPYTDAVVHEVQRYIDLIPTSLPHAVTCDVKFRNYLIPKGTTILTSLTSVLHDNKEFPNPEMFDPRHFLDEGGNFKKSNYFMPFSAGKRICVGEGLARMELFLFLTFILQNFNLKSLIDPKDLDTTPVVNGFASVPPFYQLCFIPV
T1 sequence (P10635 whole entry): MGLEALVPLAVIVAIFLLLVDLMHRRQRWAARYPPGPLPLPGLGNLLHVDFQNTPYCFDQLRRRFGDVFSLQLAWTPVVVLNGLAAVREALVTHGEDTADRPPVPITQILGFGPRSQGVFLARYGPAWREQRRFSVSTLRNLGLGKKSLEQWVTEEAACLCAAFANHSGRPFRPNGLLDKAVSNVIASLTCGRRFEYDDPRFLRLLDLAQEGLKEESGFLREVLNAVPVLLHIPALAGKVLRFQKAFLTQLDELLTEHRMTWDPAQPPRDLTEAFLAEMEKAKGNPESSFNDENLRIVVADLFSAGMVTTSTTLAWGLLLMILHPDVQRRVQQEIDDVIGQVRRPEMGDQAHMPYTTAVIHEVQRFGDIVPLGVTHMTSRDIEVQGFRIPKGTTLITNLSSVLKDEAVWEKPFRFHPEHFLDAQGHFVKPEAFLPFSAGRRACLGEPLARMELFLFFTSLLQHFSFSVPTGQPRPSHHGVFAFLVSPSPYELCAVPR
T2 sequence (P11712 whole entry): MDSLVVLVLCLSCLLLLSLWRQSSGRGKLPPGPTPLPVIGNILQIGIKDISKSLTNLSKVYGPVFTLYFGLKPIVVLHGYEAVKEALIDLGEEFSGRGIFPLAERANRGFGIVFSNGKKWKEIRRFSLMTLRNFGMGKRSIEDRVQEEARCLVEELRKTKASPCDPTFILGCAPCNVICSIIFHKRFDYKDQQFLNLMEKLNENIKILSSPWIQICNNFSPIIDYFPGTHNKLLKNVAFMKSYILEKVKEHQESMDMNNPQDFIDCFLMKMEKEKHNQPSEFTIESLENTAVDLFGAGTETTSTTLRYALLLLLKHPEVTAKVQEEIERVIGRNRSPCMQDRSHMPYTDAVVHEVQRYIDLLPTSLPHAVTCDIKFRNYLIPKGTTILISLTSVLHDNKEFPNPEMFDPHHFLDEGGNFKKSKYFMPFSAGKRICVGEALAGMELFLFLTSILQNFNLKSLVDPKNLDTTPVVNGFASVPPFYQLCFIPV
T4 sequence (P08684 whole entry): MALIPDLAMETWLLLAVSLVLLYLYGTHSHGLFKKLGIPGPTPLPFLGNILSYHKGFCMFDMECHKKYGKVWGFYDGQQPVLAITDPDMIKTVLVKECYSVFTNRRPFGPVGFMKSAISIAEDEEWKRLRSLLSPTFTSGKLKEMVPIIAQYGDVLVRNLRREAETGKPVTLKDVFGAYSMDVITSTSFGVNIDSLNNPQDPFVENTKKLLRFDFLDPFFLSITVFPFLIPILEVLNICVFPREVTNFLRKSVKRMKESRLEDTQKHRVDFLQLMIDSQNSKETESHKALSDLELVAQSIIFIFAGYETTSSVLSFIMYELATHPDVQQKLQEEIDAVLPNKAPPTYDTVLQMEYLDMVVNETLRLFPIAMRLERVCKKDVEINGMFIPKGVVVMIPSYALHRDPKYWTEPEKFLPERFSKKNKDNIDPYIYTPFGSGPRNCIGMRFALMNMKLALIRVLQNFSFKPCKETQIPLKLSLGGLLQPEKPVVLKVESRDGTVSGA
Sequence of CYP2C19 (P33261 whole entry): as the sequence (P33261 whole entry) above
Sequence of CYP2D6 (P10635 whole entry): as the sequence (P10635 whole entry) above
Sequence of CYP2C9 (P11712 whole entry): as the sequence (P11712 whole entry) above
Sequence of CYP3A4 (P08684 whole entry): as the sequence (P08684 whole entry) above

Regarding `CN1CC[C@@H](c2ccc(Cl)cc2)[C@H](COc2cc(F)c(S(=O)(=O)Nc3ncns3)cc2F)C1`, the IC50 in data set [1] (hek293) was > 10000 nM. Moreover, the “inhibition (INH)” value against Cytochrome P450 2D6 [2] was found to be 69%; against Cytochrome P450 2C9 [3], 93%; on Cytochrome P450 2C19 [4], 71%; at Cytochrome P450 3A4 [5], 96%.
With `O=S(=O)(Nc1ncns1)c1cc(F)c(OC[C@@H]2CNCC[C@H]2c2ccccc2)cc1F` (relative stereo), the IC50 in data set [1] is > 10000 nM; in data set [6], 7.9 nM. Besides, the inhibition at 10 µM worked out at 82% against CYP2D6, 81% on CYP2C9, 81% against CYP2C19 and 95% against CYP3A4. Besides, in the data set filed under Homo sapiens, the Ratio IC50 was > 1000.
In the case of `O=S(=O)(Nc1ncns1)c1cc(F)c(OC[C@@H]2CNCC[C@H]2c2ccc(Cl)cc2)cc1F`, the “inhibition (INH)” value on Cytochrome P450 2D6 [2] is on record as 82%; at Cytochrome P450 2C19 [4], 84%; on Cytochrome P450 3A4 [5], 96%. Besides, the IC50 in data set [6] was 59 nM.
For the molecule `CN1CC[C@H](c2ccc(Cl)cc2)[C@@H](COc2cc(F)c(S(=O)(=O)Nc3ncns3)cc2F)C1`, the IC50 in data set [1] is > 10000 nM; against Cytochrome P450 2C19 [7] it was > 10000 nM; in data set [6] it was 4 nM; against Cytochrome P450 2D6 [8], 270 nM; against Cytochrome P450 3A4 [9] it was 140 nM; against Cytochrome P450 2C9 [10], 880 nM.
As to `O=S(=O)(Nc1ncc(F)cn1)c1cc(F)c(OC[C@H]2CNCC[C@@H]2c2ccc(Cl)cc2)cc1F`, the IC50 (in [1]; at Cytochrome P450 2C19 [7]; at Cytochrome P450 2D6 [8]; against Cytochrome P450 3A4 [9]; against Cytochrome P450 2C9 [10]) was > 10000 nM throughout.

For orientation: IC50 means the point on the concentration scale where inhibition reaches its midpoint. Broadly, the inhibition is the change of the read-out against control, counted positive when it falls. Low values mean little suppression, high ones strong suppression.

(Values after ChEMBL document CHEMBL3352194, “The discovery of benzenesulfonamide-based potent and selective inhibitors of voltage-gated sodium channel Na(v)1.7” (Bioorg Med Chem Lett, 2014).)
